Reference: ChEMBL document CHEMBL1126966, “1,25,28-trihydroxyvitamin D2 up-regulates renal vitamin D receptor without causing hypercalcemia” (1993)

What was measured:
Rattus norvegicus [1] = organism: Rattus norvegicus; assay: Compound was tested for increase in plasma calcium concentration in rats; type: functional, organism-based
Rattus norvegicus [2] = organism: Rattus norvegicus; assay: Compound was tested for its ability to stimulate bone calcium resorption in rats at a dose of 12.5 ng/rat; type: functional, organism-based
Rattus norvegicus [3] = organism: Rattus norvegicus; assay: Compound was tested for regulation of kidney VDR in rats; type: functional
Rattus norvegicus [4] = organism: Rattus norvegicus; assay: Compound was tested for its ability to stimulate intestinal calcium absorption relative to 1,25(OH)2D3 in rats at a dose of 100ng/rat, expressed as Ca (serosal) /Ca (mucosal); type: functional
Rattus norvegicus [5] = organism: Rattus norvegicus; assay: Compound was tested for its ability to stimulate intestinal calcium absorption relative to 1,25(OH)2D3 in rats at a dose of 200ng/rat, expressed as Ca (serosal) /Ca (mucosal); type: functional
Rattus norvegicus [6] = organism: Rattus norvegicus; assay: Compound was tested for its ability to stimulate intestinal calcium absorption relative to 1,25(OH)2D3 in rats at a dose of 25ng/rat, expressed as Ca (serosal) /Ca (mucosal); type: functional
Rattus norvegicus [7] = organism: Rattus norvegicus; assay: Compound was tested for its ability to stimulate intestinal calcium absorption relative to 1,25(OH)2D3 in rats at a dose of 50ng/rat, expressed as Ca (serosal) /Ca (mucosal); type: functional
Rattus norvegicus [8] = organism: Rattus norvegicus; assay: Compound was tested for its ability to stimulate bone calcium resorption in serum relative to 1,25(OH)2D3 in rats at a dose of 100 ng/rat; type: functional, organism-based
Rattus norvegicus [9] = organism: Rattus norvegicus; assay: Compound was tested for its ability to stimulate bone calcium resorption in serum relative to 1,25(OH)2D3 in rats at a dose of 200 ng/rat; type: functional, organism-based
Rattus norvegicus [10] = organism: Rattus norvegicus; assay: Compound was tested for its ability to stimulate bone calcium resorption in serum relative to 1,25(OH)2D3 in rats at a dose of 25 ng/rat; type: functional, organism-based
Rattus norvegicus [11] = organism: Rattus norvegicus; assay: Compound was tested for its ability to stimulate bone calcium resorption in serum relative to 1,25(OH)2D3 in rats at a dose of 50 ng/rat; type: functional, organism-based

**Q.** Which results are given for `C=C1/C(=C\C=C2/CCC[C@]3(C)[C@@H]([C@H](C)CCCC(C)(C)O)CC[C@@H]23)C[C@@H](O)C[C@@H]1O`?
**A.** Plasma Ca2+ (Rattus norvegicus [1]): 10.6 mg/dL; Serum Ca2+ (Rattus norvegicus [2]): 4.6 mg/dL

**Q.** What does the source list for `C=C1/C(=C\C=C2/CCC[C@]3(C)[C@@H]([C@H](C)/C=C/[C@H](CO)C(C)(C)O)CC[C@@H]23)C[C@@H](O)C[C@@H]1O`?
**A.** Kidney VDR (Rattus norvegicus [3]): 249 fM (mg of protein)-1; Plasma Ca2+ (Rattus norvegicus [1]): 10.5 mg/dL; Ratio (Rattus norvegicus [4]): 2.22; Ratio (Rattus norvegicus [5]): 3.21; Ratio (Rattus norvegicus [6]): 2.17; Ratio (Rattus norvegicus [7]): 2.08; Serum Ca2+ (Rattus norvegicus [8]): 3.8 mg/dL; Serum Ca2+ (Rattus norvegicus [9]): 4 mg/dL; Serum Ca2+ (Rattus norvegicus [10]): 4.1 mg/dL; Serum Ca2+ (Rattus norvegicus [11]): 4.2 mg/dL
